Assay results from patent US20230203029A1 (priority 2020, published 2023).
Where two headings read alike, the source gives them in different places.

Columns and labels:
[1] = target: T1, human MERTK cytoplasmic domain (Homo sapiens, UniProt Q12866); experiment: biochemical; conditions: 30 uM ATP, read-out: Assay 1a Mer IC50 30 uM ATP
T1 construct: human MERTK cytoplasmic domain (Carna Biosciences 08-108); purchased Carna Biosciences 08-108
Experimental: Assay 1a—MERTK HTRF KinEASE-TK Assay
The enzymatic reaction was carried out for 30 min at room temperature. 10 μL TK Antibody-Cryptate/Streptavidin-XL665 (Cisbio 610SAXLG) was then added for 60 min, including EDTA containing detection buffer (Cisbio 62SDBRDF) to stop the reaction.

[2] = target: T2, recombinant human MERTK expressed in live cells (HEK 293, MERTK-Nanoluc fusion vector) (Homo sapiens, UniProt Q12866); experiment: Assay 2 MERTK cellular target engagement (NanoBRET TE) assay; type: cell-based; conditions: HEK 293 cells, tracer K9, 2 h at 37° C.; read-out: Assay 2 Cell TE MER IC50
T2 construct: host or cells: HEK 293
T2 sequence (Q12866 21-999): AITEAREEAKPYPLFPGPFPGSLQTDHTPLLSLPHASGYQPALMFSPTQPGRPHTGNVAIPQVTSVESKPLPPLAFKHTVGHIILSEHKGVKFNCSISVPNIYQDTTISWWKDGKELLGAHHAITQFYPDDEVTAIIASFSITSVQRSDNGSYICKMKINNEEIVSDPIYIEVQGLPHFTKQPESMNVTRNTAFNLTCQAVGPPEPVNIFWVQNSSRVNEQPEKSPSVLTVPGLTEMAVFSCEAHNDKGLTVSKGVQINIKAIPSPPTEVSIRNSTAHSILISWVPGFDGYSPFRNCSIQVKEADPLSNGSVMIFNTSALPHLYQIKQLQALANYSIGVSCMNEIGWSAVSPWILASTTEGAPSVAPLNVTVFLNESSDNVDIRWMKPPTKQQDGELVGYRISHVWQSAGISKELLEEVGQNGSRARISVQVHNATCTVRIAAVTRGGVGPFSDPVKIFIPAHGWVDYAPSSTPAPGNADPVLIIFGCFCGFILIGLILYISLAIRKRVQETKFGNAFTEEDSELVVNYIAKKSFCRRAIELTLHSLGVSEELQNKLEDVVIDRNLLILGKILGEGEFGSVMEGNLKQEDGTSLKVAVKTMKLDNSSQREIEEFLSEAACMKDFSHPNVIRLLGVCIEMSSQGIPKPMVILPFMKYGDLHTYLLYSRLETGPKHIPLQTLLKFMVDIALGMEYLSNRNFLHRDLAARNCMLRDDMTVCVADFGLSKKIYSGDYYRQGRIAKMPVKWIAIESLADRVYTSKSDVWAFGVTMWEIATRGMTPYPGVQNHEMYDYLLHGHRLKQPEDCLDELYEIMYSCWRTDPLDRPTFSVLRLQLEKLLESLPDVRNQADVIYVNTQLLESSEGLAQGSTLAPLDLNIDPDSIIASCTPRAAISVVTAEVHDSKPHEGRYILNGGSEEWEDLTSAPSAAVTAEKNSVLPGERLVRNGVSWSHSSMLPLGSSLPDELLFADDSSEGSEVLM

[3] = target: T3, recombinant human AXL expressed in live cells (HEK, AXL-Nanoluc fusion vector) (Homo sapiens, UniProt P30530); experiment: Assay 3 AXL cellular target engagement (NanoBRET TE) assay; type: cell-based
T3 construct: host or cells: HEK
T3 sequence (P30530 26-894): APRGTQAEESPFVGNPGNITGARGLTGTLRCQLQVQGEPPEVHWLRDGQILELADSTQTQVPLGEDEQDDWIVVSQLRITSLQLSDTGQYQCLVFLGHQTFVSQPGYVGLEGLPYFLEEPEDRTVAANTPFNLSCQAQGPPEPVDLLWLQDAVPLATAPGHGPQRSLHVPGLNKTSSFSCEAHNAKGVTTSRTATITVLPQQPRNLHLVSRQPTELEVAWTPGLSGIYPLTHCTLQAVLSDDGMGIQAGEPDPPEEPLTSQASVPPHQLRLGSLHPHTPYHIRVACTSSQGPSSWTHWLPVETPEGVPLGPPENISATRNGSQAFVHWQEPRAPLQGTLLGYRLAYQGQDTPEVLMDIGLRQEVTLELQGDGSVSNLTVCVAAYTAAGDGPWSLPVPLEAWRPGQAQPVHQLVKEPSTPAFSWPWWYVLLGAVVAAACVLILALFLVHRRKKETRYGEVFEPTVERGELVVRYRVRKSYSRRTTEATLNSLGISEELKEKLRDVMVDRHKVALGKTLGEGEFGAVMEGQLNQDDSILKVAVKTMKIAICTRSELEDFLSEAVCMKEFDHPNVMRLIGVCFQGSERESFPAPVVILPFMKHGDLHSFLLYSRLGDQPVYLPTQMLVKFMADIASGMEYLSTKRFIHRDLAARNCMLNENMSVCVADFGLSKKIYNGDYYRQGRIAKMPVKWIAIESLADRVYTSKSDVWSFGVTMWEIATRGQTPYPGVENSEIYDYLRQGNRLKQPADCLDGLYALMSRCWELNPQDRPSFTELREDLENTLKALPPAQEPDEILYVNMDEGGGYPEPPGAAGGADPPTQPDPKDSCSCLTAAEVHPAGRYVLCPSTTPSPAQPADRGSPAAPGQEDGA
Experimental: Assay 3—AXL Cellular Target Engagement (TE) Assay
Compound affinities for recombinant human AXL expressed in live cells were assessed via the Promega NanoBRET TE assay technology. Human Embryonic Kidney (HEK) cells were transiently transfected with the AXL-Nanoluc fusion vector (Promega Cat NV1071) using Fugene HD reagent (Promega E2311). […] Incubations were conducted for 2 h at 37° C., after which 20 μl NanoGlo substrate/inhibitor mix (Promega N2161) was added to each well for 2-3 min. The plate was then read on a BMG Pherastar FSX using a NanoBRET filter to record donor emission at 450 nm and acceptor fluorophore emission at 610 nm. From this the BRET ratio (acceptor 610 nm/donor 450 nm) for each data point was calculated.

[4] = target: T4, human AXL cytoplasmic domain (Homo sapiens, UniProt P30530); experiment: Assay 1b AXL HTRF KinEASE-TK assay; type: biochemical
T4 construct: human AXL cytoplasmic domain (Thermo Fisher A31515); purchased Thermo Fisher A31515
T4 sequence (P30530 473-894 limits assumed): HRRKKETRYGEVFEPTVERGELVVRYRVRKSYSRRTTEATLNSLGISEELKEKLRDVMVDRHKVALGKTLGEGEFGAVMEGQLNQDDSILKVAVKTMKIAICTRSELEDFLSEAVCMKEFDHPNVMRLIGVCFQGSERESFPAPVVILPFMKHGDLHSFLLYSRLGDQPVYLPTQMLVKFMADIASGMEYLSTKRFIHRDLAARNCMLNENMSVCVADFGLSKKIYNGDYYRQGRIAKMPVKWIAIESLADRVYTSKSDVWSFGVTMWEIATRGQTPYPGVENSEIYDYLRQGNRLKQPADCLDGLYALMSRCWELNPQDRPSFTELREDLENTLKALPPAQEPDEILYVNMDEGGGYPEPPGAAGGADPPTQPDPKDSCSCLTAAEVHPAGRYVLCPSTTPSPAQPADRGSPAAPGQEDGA
How it was run: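 Recombinant cytoplasmic domain (5 nM) in kinase buffer with 5 mM MgCl2, 1 mM MnCl2, 1 mM DTT, 50 nM SEB plus test compounds; reaction 30 min at room temperature. EDTA-containing detection with TK antibody-cryptate/streptavidin-XL665 for 60 min; HTRF 665/620 ratio read. IC50 from 4-parameter logistic fit with variable slope.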

[5] = * Maximal inhibition achieved 40%
[6] = HEK cells, tracer K5, 2 h at 37° C., read-out: Assay 3 Cell TE Axl IC50

Compound	IC50 [1] [nM]	IC50 [2] [nM]	IC50 [3] [nM]	IC50 [1, 5] [nM]	IC50 [4] [nM]	IC50 [3, 6] [nM]
O=C(Nc1ccc(Nc2ccnc3cnc(N4CCOCC4)cc23)cc1)c1cccn(-c2ccccc2)c1=O [Example 2.1, N-[4-[(6-morpholino-1,7-naphthyridin-4-yl)amino]phenyl]-2-oxo-1-phenyl-pyridine-3-carboxamide]	196	163	1410			
O=C(Nc1ccc(Nc2ccnc3cnc(N4CCCNCC4)cc23)cc1)c1cccn(-c2ccccc2)c1=O [Example 2.2, N-[4-[[6-(1,4-diazepan-1-yl)-1,7-naphthyridin-4-yl]amino]phenyl]-2-oxo-1-phenyl-pyridine-3-carboxamide]	54	23.7	189			
O=C(N[C@H]1CC[C@H](O)CC1)c1cc2c(Nc3ccc(NC(=O)c4cccn(-c5ccccc5)c4=O)cc3)ccnc2cn1 [Example 5, N-(4-hydroxycyclohexyl)-4-[4-[(2-oxo-1-phenyl-pyridine-3-carbonyl)amino]anilino]-1,7-naphthyridine-6-carboxamide]	60	96.1	97.5			
CN1CCC(NC(=O)c2cc3c(Oc4ccc(NC(=O)c5cccn(-c6ccccc6)c5=O)cc4)ccnc3cn2)CC1 [Example 6, N-(1-methyl-4-piperidyl)-4-[4-[(2-oxo-1-phenyl-pyridine-3-carbonyl)amino]phenoxy]-1,7-naphthyridine-6-carboxamide]	52	110	110			
O=C(Nc1ccc(Oc2ccnc3cnc(N4CCNCC4)cc23)cc1)c1cccn(-c2ccccc2)c1=O [Example 12, 2-Oxo-1-phenyl-N-[4-[(6-piperazin-1-yl-1,7-naphthyridin-4-yl)oxy]phenyl]pyridine-3-carboxamide]	11	80.4			54	114
O=C(Nc1ccc(Oc2ccnc3cnc(N4CCNCC4)cc23)c(F)c1)c1cccn(-c2ccccc2)c1=O [Example 31, N-[3-fluoro-4-[(6-piperazin-1-yl-1,7-naphthyridin-4-yl)oxy]phenyl]-2-oxo-1-phenyl-pyridine-3-carboxamide]	6	26.1	34.9		12	
O=C(Nc1ccc(Oc2ccnc3cnc(N4CCNCC4)cc23)cn1)c1cccn(-c2ccccc2)c1=O [Example 32, 2-oxo-1-phenyl-N-[5-[(6-piperazin-1-yl-1,7-naphthyridin-4-yl)oxy]-2-pyridyl]pyridine-3-carboxamide]	17	80.8			310	127

Further lines, results first:

IC50 [1] [nM]	IC50 [2] [nM]	IC50 [3] [nM]	IC50 [1, 5] [nM]	IC50 [4] [nM]	IC50 [3, 6] [nM]	Compound
37	131	133				CN1CCC(n2cc(-c3cc4c(Nc5ccc(NC(=O)c6cccn(-c7ccccc7)c6=O)cc5)ccnc4cn3)cn2)CC1 [Example 4.1, N-[4-[[6-[1-(1-methyl-4-piperidyl)pyrazol-4-yl]-1,7-naphthyridin-4-yl]amino]phenyl]-2-oxo-1-phenyl-pyridine-3-carboxamide]
70	135	335				O=C(NOCCO)c1cc2c(Nc3ccc(NC(=O)c4cccn(-c5ccccc5)c4=O)cc3)ccnc2cn1 [Example 5.1, N-(2-hydroxyethoxy)-4-[4-[(2-oxo-1-phenyl-pyridine-3-carbonyl)amino]anilino]-1,7-naphthyridine-6-carboxamide]
	174	363	17			NC(=O)c1cc2c(Nc3ccc(NC(=O)c4cccn(-c5ccccc5)c4=O)cc3)ccnc2cn1 [Example 5.2, 4-[4-[(2-oxo-1-phenyl-pyridine-3-carbonyl)amino]anilino]-1,7-naphthyridine-6-carboxamide]
	41.9	46.7	11			CNC(=O)c1cc2c(Nc3ccc(NC(=O)c4cccn(-c5ccccc5)c4=O)cc3)ccnc2cn1 [Example 5.3, N-methyl-4-[4-[(2-oxo-1-phenyl-pyridine-3-carbonyl)amino]anilino]-1,7-naphthyridine-6-carboxamide]
31	95.6	83.3		60		CN1CCC(NC(=O)c2cc3c(Oc4ccc(NC(=O)c5cccn(-c6ccccc6)c5=O)nc4)ccnc3cn2)CC1 [Example 28.2, N-(1-methyl-4-piperidyl)-4-[[6-[(2-oxo-1-phenyl-pyridine-3-carbonyl)amino]-3-pyridyl]oxy]-1,7-naphthyridine-6-carboxamide]
